Laboratory results from ChEMBL document CHEMBL5465560, “Selectivity Literature for EUbOPEN Chemogenomic Library” (2024).

What was measured:
[1] = test system: Fibroblast growth factor receptor 3 (Homo sapiens), P22607 [G697C]; assay: (§1) Selectivity interaction (LanthaScreen Eu Kinase Binding Assay) EUB0001632a FGFR3; details: at 10 µM
[2] = test system: Fibroblast growth factor receptor 3 (Homo sapiens), P22607 [K650M]; assay: as §1; details: at 10 µM
[3] = biological target: T1, Ephrin type-A receptor 8 (Homo sapiens) (UniProt P29322); details: at 10 µM
T1 sequence (whole entry): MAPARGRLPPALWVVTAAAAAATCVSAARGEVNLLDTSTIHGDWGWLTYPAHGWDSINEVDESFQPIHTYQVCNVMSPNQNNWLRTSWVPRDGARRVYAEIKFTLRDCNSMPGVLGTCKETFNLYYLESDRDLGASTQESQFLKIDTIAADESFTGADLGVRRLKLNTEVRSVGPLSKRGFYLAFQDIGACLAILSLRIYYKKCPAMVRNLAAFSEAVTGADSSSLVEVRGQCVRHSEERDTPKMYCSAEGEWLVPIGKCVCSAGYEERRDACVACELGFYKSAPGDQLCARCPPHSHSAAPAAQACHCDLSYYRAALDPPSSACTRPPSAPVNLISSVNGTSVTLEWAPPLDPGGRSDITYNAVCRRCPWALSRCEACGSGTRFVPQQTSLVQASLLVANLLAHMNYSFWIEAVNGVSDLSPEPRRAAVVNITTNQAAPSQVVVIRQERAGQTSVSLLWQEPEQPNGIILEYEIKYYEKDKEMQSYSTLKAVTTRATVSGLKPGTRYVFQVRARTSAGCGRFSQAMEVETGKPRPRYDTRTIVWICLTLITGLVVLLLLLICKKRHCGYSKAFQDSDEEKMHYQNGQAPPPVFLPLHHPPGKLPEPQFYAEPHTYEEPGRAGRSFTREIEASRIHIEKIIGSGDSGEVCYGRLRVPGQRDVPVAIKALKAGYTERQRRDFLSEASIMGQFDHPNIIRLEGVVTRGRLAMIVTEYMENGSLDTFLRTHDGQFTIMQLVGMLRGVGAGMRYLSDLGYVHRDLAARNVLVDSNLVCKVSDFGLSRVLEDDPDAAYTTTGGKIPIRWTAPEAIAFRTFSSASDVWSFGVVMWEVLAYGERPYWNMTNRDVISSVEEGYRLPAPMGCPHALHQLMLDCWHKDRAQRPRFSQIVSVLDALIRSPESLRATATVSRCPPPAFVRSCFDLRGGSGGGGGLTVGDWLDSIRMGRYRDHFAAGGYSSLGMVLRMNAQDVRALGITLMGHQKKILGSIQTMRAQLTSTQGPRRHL

[4] = biological target: Activin receptor type-1-like (Homo sapiens) (UniProt P37023); assay: Selectivity interaction (KinomeScan (DiscoverX)) EUB0000607a ACVRL1; details: at 10 µM
[5] = biological target: Tyrosine-protein kinase Lyn (Homo sapiens, UniProt P07948); assay: Selectivity interaction (SelectScreen profiling (Invitrogen)) EUB0000607a LYN; details: at 2 µM
[6] = biological target: T2, Serine/threonine-protein kinase TBK1 (Homo sapiens) (UniProt Q9UHD2); assay: Selectivity interaction (KinomeScan (DiscoverX)) EUB0000607a TBK1; details: at 10 µM
T2 sequence (whole entry): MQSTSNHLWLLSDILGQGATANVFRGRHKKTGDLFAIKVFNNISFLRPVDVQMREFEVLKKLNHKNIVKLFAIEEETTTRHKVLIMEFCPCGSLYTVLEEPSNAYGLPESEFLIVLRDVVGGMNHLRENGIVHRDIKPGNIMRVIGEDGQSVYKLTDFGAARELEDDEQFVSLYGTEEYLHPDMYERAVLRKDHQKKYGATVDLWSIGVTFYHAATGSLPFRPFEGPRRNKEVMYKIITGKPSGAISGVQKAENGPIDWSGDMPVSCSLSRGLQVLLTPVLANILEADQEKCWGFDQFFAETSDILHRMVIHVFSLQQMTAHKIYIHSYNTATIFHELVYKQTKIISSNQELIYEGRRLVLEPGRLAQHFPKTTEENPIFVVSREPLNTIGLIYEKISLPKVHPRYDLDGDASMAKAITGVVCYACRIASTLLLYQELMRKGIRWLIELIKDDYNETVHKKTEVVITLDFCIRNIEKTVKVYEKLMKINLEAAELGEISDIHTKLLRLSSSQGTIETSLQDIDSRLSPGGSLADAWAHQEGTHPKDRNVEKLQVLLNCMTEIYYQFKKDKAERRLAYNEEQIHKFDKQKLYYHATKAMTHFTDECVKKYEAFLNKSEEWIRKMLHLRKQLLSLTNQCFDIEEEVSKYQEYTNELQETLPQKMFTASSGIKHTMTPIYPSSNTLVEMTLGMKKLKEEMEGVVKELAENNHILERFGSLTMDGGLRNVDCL

[7] = biological target: Tyrosine-protein kinase ABL1 (Homo sapiens, UniProt P00519); assay: Selectivity interaction (Kinase panel (Invitrogen)) EUB0000639a ABL1; details: at 200 nM
Sequence of Tyrosine-protein kinase ABL1 (P00519 whole entry): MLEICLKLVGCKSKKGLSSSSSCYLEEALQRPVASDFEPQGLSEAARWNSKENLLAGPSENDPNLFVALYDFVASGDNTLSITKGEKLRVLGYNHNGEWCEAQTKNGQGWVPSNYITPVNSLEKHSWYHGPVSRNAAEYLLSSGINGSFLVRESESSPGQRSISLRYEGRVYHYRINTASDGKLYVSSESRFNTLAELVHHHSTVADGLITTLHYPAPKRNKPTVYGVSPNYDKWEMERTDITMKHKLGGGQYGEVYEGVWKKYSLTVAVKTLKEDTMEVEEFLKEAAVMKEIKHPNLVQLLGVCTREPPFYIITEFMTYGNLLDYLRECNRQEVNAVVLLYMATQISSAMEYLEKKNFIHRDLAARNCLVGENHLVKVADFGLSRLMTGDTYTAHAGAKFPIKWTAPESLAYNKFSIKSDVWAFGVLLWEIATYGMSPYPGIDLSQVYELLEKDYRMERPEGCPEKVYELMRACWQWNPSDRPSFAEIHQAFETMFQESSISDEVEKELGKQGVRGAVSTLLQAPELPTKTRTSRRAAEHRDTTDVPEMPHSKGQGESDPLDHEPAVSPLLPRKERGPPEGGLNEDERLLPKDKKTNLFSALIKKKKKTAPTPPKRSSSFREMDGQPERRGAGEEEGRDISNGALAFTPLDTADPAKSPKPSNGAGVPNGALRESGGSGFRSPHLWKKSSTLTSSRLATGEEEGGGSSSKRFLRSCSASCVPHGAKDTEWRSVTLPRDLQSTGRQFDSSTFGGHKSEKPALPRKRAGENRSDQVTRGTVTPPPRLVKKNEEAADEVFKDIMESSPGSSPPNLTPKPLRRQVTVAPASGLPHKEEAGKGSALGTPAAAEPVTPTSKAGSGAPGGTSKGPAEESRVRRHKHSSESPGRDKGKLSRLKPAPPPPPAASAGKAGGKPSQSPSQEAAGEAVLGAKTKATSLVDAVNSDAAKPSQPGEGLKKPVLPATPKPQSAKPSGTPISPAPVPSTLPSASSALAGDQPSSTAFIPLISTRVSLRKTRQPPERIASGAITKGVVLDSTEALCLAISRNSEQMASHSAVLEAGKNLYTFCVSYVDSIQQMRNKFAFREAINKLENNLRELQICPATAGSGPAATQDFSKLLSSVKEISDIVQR

Sequence of Activin receptor type-1-like (Homo sapiens) (P37023 whole entry): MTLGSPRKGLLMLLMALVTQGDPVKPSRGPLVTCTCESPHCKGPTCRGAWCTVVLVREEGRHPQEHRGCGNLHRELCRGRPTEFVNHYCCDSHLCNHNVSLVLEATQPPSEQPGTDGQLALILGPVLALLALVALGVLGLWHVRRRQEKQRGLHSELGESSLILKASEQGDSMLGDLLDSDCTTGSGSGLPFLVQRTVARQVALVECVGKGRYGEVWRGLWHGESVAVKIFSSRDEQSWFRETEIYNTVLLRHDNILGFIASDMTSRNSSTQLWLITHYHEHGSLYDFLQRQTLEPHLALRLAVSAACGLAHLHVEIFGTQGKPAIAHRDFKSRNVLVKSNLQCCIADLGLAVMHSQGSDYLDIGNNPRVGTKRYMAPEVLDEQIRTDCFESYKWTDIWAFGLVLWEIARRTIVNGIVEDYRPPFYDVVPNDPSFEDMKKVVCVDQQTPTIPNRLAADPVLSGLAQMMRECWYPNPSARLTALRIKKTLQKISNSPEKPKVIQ
Sequence of Fibroblast growth factor receptor 3 (Homo sapiens), P22607 [K650M] (P22607 whole entry K650M): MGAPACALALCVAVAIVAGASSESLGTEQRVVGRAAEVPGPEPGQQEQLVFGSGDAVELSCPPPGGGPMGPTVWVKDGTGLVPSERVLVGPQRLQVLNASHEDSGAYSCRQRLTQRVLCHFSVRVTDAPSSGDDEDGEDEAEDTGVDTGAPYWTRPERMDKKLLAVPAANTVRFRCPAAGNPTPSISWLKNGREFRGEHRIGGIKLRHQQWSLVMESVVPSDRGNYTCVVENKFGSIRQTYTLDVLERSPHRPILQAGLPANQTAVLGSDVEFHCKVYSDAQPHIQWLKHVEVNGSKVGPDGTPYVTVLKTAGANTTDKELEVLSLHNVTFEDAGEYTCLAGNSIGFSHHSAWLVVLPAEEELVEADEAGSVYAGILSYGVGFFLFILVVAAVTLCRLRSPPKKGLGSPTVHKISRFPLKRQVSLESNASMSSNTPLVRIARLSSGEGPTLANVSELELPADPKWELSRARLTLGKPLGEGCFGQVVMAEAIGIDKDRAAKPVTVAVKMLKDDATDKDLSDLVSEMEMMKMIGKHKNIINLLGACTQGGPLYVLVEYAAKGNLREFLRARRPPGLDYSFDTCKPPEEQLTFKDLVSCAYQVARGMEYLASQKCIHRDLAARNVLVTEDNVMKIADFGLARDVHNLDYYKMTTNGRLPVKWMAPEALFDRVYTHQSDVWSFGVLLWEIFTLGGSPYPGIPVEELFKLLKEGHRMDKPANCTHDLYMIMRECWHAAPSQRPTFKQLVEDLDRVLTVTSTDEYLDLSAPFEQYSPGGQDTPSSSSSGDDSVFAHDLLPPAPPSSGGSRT
Sequence of Tyrosine-protein kinase Lyn (P07948 2-512 limits assumed): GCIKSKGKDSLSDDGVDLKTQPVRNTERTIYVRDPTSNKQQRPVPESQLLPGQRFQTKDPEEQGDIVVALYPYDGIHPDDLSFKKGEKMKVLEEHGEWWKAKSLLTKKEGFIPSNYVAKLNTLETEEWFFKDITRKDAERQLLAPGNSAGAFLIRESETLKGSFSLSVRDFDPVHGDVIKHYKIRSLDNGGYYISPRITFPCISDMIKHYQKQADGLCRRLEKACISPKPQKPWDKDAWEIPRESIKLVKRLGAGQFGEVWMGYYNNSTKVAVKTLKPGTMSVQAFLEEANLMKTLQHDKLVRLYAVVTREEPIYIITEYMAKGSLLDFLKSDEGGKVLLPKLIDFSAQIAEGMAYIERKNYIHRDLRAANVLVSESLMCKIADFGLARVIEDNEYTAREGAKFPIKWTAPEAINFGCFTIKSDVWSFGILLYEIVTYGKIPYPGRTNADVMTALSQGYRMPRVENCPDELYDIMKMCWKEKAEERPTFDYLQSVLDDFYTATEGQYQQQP
Sequence of Fibroblast growth factor receptor 3 (Homo sapiens), P22607 [G697C] (P22607 whole entry G697C): as the sequence (P22607 whole entry K650M) above, with M650K, G697C counted along it

Cn1cc(-n2cnc3c(NCc4nc5cc(Cl)c(Cl)cc5[nH]4)nc(N4CCOCC4)nc32)cn1
% of inhibition [1]: -105%
% of inhibition [2]: -215%

Cc1cc([C@@H](C)Nc2ccccc2C(=O)O)c2nc(N3CCOCC3)cc(=O)n2c1 [AZD-6482]
% of control [3]: 96%

CNC(=O)Nc1ccc(-c2nc(N3CC4CCC(C3)O4)c3cnn(C4CCC5(CC4)OCCO5)c3n2)cc1
% of control [4]: 100%
% of inhibition [5]: 7%
% of control [6]: 82%

CC[C@@H]1[C@H](F)C(=O)N[C@@H]1COc1nccc2cc(C(N)=O)c(OC)cc12 [ZIMLOVISERTIB]
% of inhibition [7]: -8%
